This is an account of results in patent US5677281A, “Use of peptide derivatives for the preparation of medicaments inhibiting endopeptidases 24.15 and 24.16” (Commissariat a l'Energie Atomique, priority 1992, dated 1997).

For assay [1], the target named is endopeptidase 24.16 (Homo sapiens, UniProt Q9BYT8). Particulars: Dauch et al, cited from earlier work.
The target of assay [2] is endopeptidase 24.15 (Homo sapiens, UniProt P52888). Particulars: cited from earlier work.
The target of assay [3] is T1, endopeptidase 24.16 (Rattus norvegicus, UniProt P42676). The assay can be described thus: Inhibition of endopeptidase 24.16, fluorimetry with substrate Mcc-Pro-Leu-Gly-Pro-DLys-Dnp (Example 8). The assay is classed as biochemical. The conditions noted are these: 1 h, 37° C., pH 7.5, read-out: inhibition constant Ki. As to the method:
After incubating for 1 h, the solutions are analyzed by fluorimetry, as described by Dauch et al, Biochem. J., 280, pp.421-426, 1991a.

Assay [4] concerns the target T1, endopeptidase 24.16. The assay can be described thus: Inhibition of endopeptidase 24.16, neurotensin as substrate, HPLC (Example 9). The assay is classed as biochemical. Here is the method: (§1) After incubation, it is interrupted by acidification and the solution analyzed by high performance liquid chromatography (HPLC) using an elution system constituted by a linear gradient of 42 min of 0.1% trifluoroacetic acid and 0.05% triethyl amine in acetonitrile, ranging between 9/1 and 3/1, as described by Checler et al, Biochimie 70, pp.75-82, 1988.
The results obtained are given in FIGS. 2 to 7, which show chromatograms obtained by measuring the optical density at 230 nm as a function of time (min).

For assay [5], the target named is T2, endopeptidase 24.15 (Rattus norvegicus, UniProt P24155). As to the kind of experiment: Inhibition of endopeptidase 24.15, substrate Bz-Gly-Ala-Ala-Phe-pAB, HPLC (Example 10). The assay is classed as biochemical. The conditions noted are these: 37° C. As to the method:
Following incubation, acidification and HPLC analysis on an inverse phase take place using a linear gradient elution system of 63 min of 0.1% trifluoroacetic acid and 0.05% triethyl amine in acetonitrile between 9/1 (v/v) and 5.5/4.5 (v/v), as described by Checler et al in Biochimie 70, pp.75-82, 1988.

In assay [6] the target is T2, endopeptidase 24.15. As to the kind of experiment: Inhibition of endopeptidase 24.15, neurotensin as substrate, HPLC (Example 11). Particulars: 37° C. The assay is classed as biochemical. As to the method:
This example uses the same operating procedure as in example 10, but using neurotensin as the endopeptidase 24.15 substrate.
(§2) After incubating for 42 min, acidification and analysis takes place of the liquid phase by HPLC in reverse phase using linear gradients of the trifluoroacetic acid, triethyl amine and acetonitrile system, as in example 3.

In the next assay the target is T3, carboxypeptidase A (Bos taurus, UniProt P00730).
T3 sequence (P00730 111-419): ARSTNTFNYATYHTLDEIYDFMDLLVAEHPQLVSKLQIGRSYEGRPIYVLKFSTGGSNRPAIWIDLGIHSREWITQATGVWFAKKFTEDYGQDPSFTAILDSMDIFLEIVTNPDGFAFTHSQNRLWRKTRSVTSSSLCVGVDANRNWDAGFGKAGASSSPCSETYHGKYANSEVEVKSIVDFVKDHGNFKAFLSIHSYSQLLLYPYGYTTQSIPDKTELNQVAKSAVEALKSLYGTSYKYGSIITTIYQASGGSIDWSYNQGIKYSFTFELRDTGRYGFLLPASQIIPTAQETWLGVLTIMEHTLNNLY
As to the kind of experiment: Effect on carboxypeptidase A, substrate Hippuryl-Phe, HPLC (Example 12). The assay is classed as biochemical. The conditions noted are these: 1 μmole/l of inhibitor, 15 min, 37° C. Here is the method:
After 15 min incubation, the solution is analyzed by HPLC.

The test system of a further assay is leucine aminopeptidase. The assay can be described thus: Effect on leucine aminopeptidase, substrate Leu-7AMC, HPLC (Example 13). The assay is classed as biochemical. Particulars: 1 μmole/l of inhibitor, 15 min, 37° C. Here is the method: After incubating for 15 min, the reaction medium is analyzed by HPLC.
Assay [7] addresses angiotensin conversion enzyme (Homo sapiens, UniProt P12821). The assay can be described thus: Effect on angiotensin conversion enzyme, substrate Hippuryl-His-Leu, HPLC (Example 14). The assay is classed as biochemical. The conditions noted are these: 1 μmole/l of inhibitor, 15 min, 37° C.
For a further assay, the system named is endopeptidase 24.11. As to the kind of experiment: Effect on endopeptidase 24.11, hydrolysis of neurotensin (Example 15). The assay is classed as biochemical. Here is the method: The hydrolysis of 2 nM of neurotensin is followed by 9 μg of endopeptidase 24.11 under the conditions described in example 3.
The target of assay [8] is T1, endopeptidase 24.16. The assay can be described thus: Inhibition of endopeptidase 24.16, neurotensin, Tris-HCl 25 mM pH 7, 25° C. (Example 16). The assay is classed as biochemical. Particulars: read-out: Endopeptidases 24.16 Ki. Here is the method:
as §1
As in example 9, this example studies the inhibiting effect of the compounds of examples 1 to 7 on endopeptidase 24.16 using neurotensin as the substrate and operating in the same way, except that use is made of a Tris-HCl, 25 mM, pH 7 buffer and a temperature of 25° C.

Assay [9] addresses T2, endopeptidase 24.15. As to the kind of experiment: Inhibition of endopeptidase 24.15, neurotensin, Tris-HCl 25 mM pH 7, 25° C. (Example 17). The assay is classed as biochemical. The conditions noted are these: read-out: Endopeptidases 24.15 Ki. Here is the method: as §2
As in example 11, this example studies the inhibiting effect of the compounds of examples 1 to 7 on endopeptidase 24.15 using neurotensin as the substrate and working under the same conditions, except that use is made of a Tris-HCl 25 mM, pH 7 buffer and a temperature of 25° C.

Entries after “also recorded” stand apart in the source; their conditions may differ. Where two headings read alike, the source gives them in different places. Residues, ends and D or L forms follow the SMILES beside them.

T2 sequence (P24155 whole entry): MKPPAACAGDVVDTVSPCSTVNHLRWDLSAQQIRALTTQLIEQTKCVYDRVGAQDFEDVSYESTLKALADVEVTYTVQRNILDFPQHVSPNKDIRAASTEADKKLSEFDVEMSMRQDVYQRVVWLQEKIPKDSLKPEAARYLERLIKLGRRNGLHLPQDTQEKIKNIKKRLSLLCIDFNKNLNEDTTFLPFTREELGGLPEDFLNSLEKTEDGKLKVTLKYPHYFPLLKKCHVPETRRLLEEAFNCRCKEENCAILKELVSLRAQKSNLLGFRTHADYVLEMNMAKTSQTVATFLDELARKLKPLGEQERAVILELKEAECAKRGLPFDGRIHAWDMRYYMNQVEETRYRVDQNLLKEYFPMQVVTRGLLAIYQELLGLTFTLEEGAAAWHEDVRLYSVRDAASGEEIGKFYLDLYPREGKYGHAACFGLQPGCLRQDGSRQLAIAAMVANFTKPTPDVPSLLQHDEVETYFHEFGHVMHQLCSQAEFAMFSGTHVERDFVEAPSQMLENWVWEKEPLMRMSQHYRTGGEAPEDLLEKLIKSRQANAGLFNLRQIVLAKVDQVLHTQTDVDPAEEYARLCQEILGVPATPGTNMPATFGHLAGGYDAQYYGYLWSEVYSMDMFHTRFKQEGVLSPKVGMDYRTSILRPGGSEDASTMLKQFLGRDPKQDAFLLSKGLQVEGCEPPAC
T1 sequence (P42676 38-704): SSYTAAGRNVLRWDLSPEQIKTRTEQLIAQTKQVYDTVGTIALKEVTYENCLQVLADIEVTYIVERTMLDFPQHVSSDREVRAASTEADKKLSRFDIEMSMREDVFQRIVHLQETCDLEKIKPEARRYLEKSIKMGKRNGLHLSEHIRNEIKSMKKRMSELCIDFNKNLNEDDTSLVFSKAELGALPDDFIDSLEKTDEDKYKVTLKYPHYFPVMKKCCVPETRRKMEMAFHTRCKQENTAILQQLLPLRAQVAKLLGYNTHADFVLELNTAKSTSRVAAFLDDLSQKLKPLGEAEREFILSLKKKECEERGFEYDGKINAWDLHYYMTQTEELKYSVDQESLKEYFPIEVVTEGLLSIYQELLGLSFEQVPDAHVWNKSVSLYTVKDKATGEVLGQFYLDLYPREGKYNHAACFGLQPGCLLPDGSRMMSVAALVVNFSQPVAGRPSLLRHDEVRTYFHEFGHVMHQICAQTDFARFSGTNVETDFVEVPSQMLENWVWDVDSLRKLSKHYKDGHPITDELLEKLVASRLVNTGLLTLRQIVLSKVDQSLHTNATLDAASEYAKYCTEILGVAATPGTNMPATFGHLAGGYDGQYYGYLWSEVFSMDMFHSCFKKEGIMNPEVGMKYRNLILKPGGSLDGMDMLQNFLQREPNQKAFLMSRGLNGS
endopeptidase 24.16 (Homo sapiens, UniProt Q9BYT8), sequence (Q9BYT8 38-704): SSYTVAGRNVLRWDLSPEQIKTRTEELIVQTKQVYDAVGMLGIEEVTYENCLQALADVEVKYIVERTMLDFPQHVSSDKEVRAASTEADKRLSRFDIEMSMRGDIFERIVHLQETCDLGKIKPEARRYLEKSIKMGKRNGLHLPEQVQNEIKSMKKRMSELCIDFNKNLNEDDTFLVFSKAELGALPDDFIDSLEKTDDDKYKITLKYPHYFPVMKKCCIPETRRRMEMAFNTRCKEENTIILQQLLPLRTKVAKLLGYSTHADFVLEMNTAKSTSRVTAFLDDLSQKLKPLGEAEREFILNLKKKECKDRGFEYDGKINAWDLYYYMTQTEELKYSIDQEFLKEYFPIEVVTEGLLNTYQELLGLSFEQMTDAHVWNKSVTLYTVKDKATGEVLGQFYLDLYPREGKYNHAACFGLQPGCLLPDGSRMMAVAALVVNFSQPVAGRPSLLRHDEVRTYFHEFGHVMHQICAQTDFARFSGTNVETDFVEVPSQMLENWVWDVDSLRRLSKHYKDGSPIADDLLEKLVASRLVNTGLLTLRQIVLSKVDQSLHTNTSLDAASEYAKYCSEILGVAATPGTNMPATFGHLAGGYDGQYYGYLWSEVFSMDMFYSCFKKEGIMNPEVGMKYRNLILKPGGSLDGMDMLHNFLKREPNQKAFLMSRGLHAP
endopeptidase 24.15 (Homo sapiens, UniProt P52888), sequence (P52888 whole entry, species assumed): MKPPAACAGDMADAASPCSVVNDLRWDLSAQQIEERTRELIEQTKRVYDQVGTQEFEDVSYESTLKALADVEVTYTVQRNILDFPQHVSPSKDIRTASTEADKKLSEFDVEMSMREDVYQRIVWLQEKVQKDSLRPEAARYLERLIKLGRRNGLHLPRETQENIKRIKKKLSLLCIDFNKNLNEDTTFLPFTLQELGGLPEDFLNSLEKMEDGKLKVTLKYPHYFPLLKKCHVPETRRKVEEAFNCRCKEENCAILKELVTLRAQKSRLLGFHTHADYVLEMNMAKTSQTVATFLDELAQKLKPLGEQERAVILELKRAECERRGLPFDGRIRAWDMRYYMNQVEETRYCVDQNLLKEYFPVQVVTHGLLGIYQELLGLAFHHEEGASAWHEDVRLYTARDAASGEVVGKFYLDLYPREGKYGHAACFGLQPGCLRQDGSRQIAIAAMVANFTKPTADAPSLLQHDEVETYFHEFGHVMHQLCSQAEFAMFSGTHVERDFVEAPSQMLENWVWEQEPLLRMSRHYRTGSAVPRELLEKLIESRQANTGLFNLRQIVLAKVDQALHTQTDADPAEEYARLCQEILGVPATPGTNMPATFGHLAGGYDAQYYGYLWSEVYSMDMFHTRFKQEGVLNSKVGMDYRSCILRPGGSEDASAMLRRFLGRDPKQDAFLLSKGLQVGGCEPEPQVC
angiotensin conversion enzyme, sequence (P12821 30-1306): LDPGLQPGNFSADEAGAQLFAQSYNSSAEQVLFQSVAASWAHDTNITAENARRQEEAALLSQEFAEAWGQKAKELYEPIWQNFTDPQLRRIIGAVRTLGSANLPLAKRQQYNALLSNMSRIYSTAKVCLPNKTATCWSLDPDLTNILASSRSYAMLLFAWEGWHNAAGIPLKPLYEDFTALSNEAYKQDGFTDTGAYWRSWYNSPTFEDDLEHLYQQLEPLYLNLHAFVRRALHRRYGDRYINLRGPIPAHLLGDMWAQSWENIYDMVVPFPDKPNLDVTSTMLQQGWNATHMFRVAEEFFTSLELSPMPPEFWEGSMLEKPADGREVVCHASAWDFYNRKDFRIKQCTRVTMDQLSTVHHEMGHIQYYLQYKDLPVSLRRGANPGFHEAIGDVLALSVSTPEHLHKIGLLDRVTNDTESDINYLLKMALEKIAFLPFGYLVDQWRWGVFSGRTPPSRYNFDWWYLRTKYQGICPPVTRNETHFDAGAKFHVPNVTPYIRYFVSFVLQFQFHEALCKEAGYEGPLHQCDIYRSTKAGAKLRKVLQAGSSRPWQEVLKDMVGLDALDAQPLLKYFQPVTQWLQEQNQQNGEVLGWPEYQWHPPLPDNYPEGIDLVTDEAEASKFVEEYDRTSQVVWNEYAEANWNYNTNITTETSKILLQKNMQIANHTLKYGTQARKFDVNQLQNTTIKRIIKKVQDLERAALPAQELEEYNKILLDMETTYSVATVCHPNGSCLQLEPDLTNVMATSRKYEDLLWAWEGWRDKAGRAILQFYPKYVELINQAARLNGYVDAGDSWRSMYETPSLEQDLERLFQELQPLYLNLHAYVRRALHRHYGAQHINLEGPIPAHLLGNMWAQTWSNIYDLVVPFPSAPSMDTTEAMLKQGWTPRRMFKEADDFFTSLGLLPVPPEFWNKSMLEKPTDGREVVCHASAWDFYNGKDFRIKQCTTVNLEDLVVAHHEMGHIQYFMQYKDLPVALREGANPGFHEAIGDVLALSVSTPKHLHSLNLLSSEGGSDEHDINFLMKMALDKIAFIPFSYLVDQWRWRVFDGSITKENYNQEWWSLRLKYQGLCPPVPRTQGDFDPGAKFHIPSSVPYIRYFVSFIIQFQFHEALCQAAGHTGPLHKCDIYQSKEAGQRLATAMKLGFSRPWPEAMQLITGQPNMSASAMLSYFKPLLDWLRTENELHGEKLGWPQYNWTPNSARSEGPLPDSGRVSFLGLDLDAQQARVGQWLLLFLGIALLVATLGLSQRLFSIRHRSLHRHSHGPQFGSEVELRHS

For `CC[C@H](C)[C@H](NC(=O)[C@@H]1CCCN1)C(=O)O` [Pro-Ile] (H-Pro-Ile-OH), the Ki at endopeptidase 24.16 [1] (Eur. J. Biochem. 202, 1991b, read-out: Ki inhibition of endopeptidase 24.16) was 90000 nM. Further, the “inhibiting action on endopeptidase 24.15” value on endopeptidase 24.15 [2] (at a concentration as high as 5 mN) is “no inhibiting action”.

Consider phosphodiepryl O3, for which the Ki worked out at 0.3 nM at endopeptidase 24.16 [3]; 0.9 nM on endopeptidase 24.16 [4] (substrate neurotensin, 37° C., pH 7.5); 5 nM at endopeptidase 24.15 [5]; 7.5 nM on endopeptidase 24.15 [6] (read-out: inhibition constant Ki); 0.44 nM at endopeptidase 24.16 [8]; 1.6 nM at endopeptidase 24.15 [9]. Besides, the “effectiveness compared with the Ki of the known inhibitor Pro-Ile” value on endopeptidase 24.16 [4] (Ki 0.9 nM versus Pro-Ile 90 μM) is on record as 100,000 times. Also, the IC50 stood at 5 nM at endopeptidase 24.15 [5] and 100 nM against endopeptidase 24.15 [6]. At carboxypeptidase A, the “carboxypeptidase A inhibition” value is reported as “no carboxypeptidase A inhibition; also recorded: no effect”. In the assay with leucine aminopeptidase, the leucine aminopeptidase inhibition entry is recorded as “no inhibition; also recorded: no effect”. The “inhibition of the angiotensin conversion enzyme” value in [7] was “no inhibition; also recorded: no effect”. Further, the “inhibition of endopeptidase 24.11” value in the assay on endopeptidase 24.11 is reported as “no inhibition; also recorded: no effect”.

Regarding `C[C@H](NC(=O)[C@H](C)NC(CCc1ccccc1)C(=O)O)C(=O)N[C@@H](Cc1ccc(O)cc1)C(=O)Nc1ccc(C(=O)O)cc1` (stereo partly drawn) [CPP-Ala-Ala-Tyr-pAB], the Ki at endopeptidase 24.16 [1] (Biochem. J. 280, 1991, read-out: inhibition constant, endopeptidase 24.16) was 1000 nM; at endopeptidase 24.15 [2] (Orlowski et al, Biochemistry 27, 1988, read-out: inhibition constant, endopeptidase 24.15), 16 nM.

As usually defined, the IC50 is the concentration that inhibits the measured activity by half. Higher therefore signals weaker potency.
